In article PMC5111108, “An insecticide resistance-breaking mosquitocide targeting inward rectifier potassium channels in vectors of Zika virus and malaria” (Scientific Reports, 2016):

What was measured:
Ae. aegypti = assay: In vivo diuresis assay in adult female Ae. aegypti (LVP); design: species or system Aedes aegypti; settings: topical 1.7 μg/mg mosquito 2 h before injection of 900 nL K+-PBS, 1 h
Experimental: The excretory capacity of adult female Ae. aegypti (LVP strain) was measured as described previously. […] The K^+-PBS consisted of the following (in mM): 92.2 NaCl, 47.5 KCl, 10 Na2HPO4 and 2 KH2PO4 (pH 7.5). Each treatment group of 5 mosquitoes was transferred into a separate graduated, packed-cell volume tube (MidSci, St. Louis, MO) and held for 1 h at 28 °C. The volume excreted by the mosquitoes was measured visually via the graduated column at the bottom of the tube. At least 8 replicates (5 mosquitoes per replicate) were performed for each treatment. All mosquitoes were confirmed to be alive at the end of 1 h.

AeKir1 = molecular target: T1, AeKir1 (Aedes aegypti, UniProt L0EQS9); assay: Two-electrode voltage clamp in Xenopus oocytes expressing AeKir1 or AeKir2B; assay type: cell-based; settings: 50 μM, inward K+ currents at -140 mV
T1 sequence (L0EQS9 1-486): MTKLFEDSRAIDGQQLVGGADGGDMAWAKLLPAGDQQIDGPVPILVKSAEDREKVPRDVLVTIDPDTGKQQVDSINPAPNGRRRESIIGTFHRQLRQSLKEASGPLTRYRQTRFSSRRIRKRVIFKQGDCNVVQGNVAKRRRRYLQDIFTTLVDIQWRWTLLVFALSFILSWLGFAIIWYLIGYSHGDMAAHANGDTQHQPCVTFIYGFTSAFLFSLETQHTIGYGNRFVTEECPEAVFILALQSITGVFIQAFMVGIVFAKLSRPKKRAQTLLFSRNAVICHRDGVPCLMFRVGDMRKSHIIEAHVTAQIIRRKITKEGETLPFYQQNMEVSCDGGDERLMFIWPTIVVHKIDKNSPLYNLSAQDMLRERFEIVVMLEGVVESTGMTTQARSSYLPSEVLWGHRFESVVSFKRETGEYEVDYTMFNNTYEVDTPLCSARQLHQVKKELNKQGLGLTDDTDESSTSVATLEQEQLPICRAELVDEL
Experimental: Heterologous expression of AeKir1 or AeKir2B was performed in Xenopus laevis oocytes as described previously. Current-voltage (I-V) relationships of oocytes were acquired by clamping the membrane potential (Vm) near the spontaneous, resting Vm and then initiating a voltage-stepping protocol (via the Clampex module of pCLAMP) consisting of 20 mV steps from −140 mV to +40 mV (100 ms each). Additional details are provided in the Supplemental Methods.
Patch clamp electrophysiology
Patch electrodes were pulled from silanized 1.5 mm outer diameter borosilicate microhematocrit tubes using a P-1000 Flaming/Brown micropipette puller (Sutter Instrument, Novato CA, USA). Electrode resistance ranged from 2 -4 MΩ. Whole-cell currents were recorded under voltage-clamp conditions using an Axopatch 200B amplifier (Molecular D evices, Sunn yvale, CA). […]
The voltage clamp was then turned off during solution changes, and when the oocyte reach ed a n ew stead y-state Vm (~90 s) the I-V relationship of the ooc yt e was acquired again. All Vm and Im v alues were digitally recorded (Digidata 1440A Data Acquisition System, Molecular Devices) and the r esulting I-V plots were generated with the Clampfit module of pC LAMP. […]
[…]

honey bee, A. mellifera = assay: Acute topical toxicity to adult honey bees; assay type: in vivo, Apis mellifera; settings: 1 mg per bee topical, 48 h
Experimental: Frames of late-stage honey bee (A. mellifera) pupae were taken from four colonies at The Ohio State University Honey Bee Lab in Wooster, OH and maintained in a dark humid incubator at 34 °C (Darwin Chambers Co., St. Louis, MO, model H024) until adult bees emerged. New adults were brushed from frames daily and placed in wooden screen cages (21 × 14 × 12 cm) provisioned with 1:1 (w/w) sucrose in water.
Acute toxicity experiments in adult bees were performed as follows. Twenty-four hours after emergence, adult honey bees in cages were anaesthetized with carbon dioxide, divided into groups of approximately 20 bees and placed in plastic-coated paper cups (177 cm^3; UNIQ Paper Yogurt Cup, Frozen Dessert Supplies, Gilbert, AZ) covered with cotton cheesecloth. […] As a positive control, some bees were treated with 3 μl of bifenthrin (0.1 μg/μl); negative controls consisted of bees treated with 3 μl of solvent. Applications were made using a 20 μl micropipette (Fisherbrand Finnpipette F2, Fisher Scientific, Pittsburgh, PA) with disposable plastic tips. After treatment, bees were returned to the paper cups and provided with sugar syrup in punctured 1.5 ml microcentrifuge tubes. […] Bees showing no movement on inspection at 48 h after treatment were scored as dead.

O=C(Cn1nc(C(F)(F)F)c2c1CCCC2)N1CCCc2ccccc21 [VU041, 1-(3,4-dihydroquinolin-1(2H)-yl)-2-(3-(trifluoromethyl)-4,5,6,7-tetrahydro-1H-indazol-1-yl)ethan-1-one]
diuretic capacity (urine excreted) compared to controls, reduction (Ae. aegypti): ~ 51%
preference of inhibition AeKir1 vs AeKir2B (AeKir1): preferentially inhibited AeKir1 over AeKir2B
honey bees alive (honey bee, A. mellifera): 91.3%
